Assay [1] deals with IRF3 pathway in THP1-Dual cells. Kind of assay: THP1-Dual reporter gene activity assay (Lucia luciferase, QUANTI-Luc). Format: cell-based, human. An excerpt:
THP1-Dual™ cells (InvivoGen catalog code: thpd-nfis) used in the test were constructed by stably integrating two inducible reporter genes into the human monocyte cell line THP1. The promoter sequence composition of the secretory embryonic alkaline phosphatase (SEAP) reporter gene consists of an IFN-β primary promoter and five copies of the upstream NF-κB co-expression transcriptional response element and three copies of the c-Rel binding site. The secretory luciferase (Lucia) reporter gene is driven by five interferon (IFN)-stimulated response elements and a basic promoter of ISG54. This made it possible to study simultaneously the two major downstream signaling pathways of STING: the NF κB pathway by detecting SEAP activity: and the IRF pathway by evaluating the activity of Lucia luciferase.
The compounds were diluted with PB buffer (50 mM HEPES, 100 mM KCl, 3 mM MgCl2, 0.1 mM DTT, 85 mM Sucrose, 1 mM ATP, 0.1 mM GTP, 0.20% BSA). 20 μL of the reference or tested compound was added to each well in a 96-well plate, followed by 180 μL of THP1-Dual cells (approximately 100,000 cells/well) suspended in PB buffer. The plate was incubated for 30 minutes at 37° C. under […], and centrifuged at 1000 rpm for 10 minutes. The supernatant was discarded. […] The supernatants were collected and QUANTI-Luc™ was used to quantify the activation of the IRF3 pathway according to the manufacturer's instructions.
A general note: Reporter assays use an easily measured gene product as a stand-in for the process of interest.

Assay [2] relates to IRF3 pathway in RAW-Dual cells (RAW264.7). Kind of assay: Raw-Dual reporter gene activity assay (luciferase, QUANTI-Luc). It counts as cell-based, mouse. The protocol: The RAW-Dual™ cells used in the test (InvivoGen catalog code: rawd-ismip) were constructed by stably integrating two inducible reporter genes in mouse macrophage cell line RAW264.7. The NF-KB pathway was studied by detecting SEAP activity and the IRF3 pathway was studied by evaluating the activity of luciferase. […] On the second day, the culture medium was discarded, and 200 μL of compound solution prepared in advance with the culture medium was added into each well followed by incubation at room temperature for 30 minutes. After the treatment medium was sucked out, it was washed twice with serum-free culture medium, and 200 μL of culture medium was added into each well, followed by incubation in an incubator at 37° C. for 18-24 hours. On the third day, 20 μL of supernatant was collected per well and QUANTI-Luc™ was used to quantify the activation of IRF3 pathway according to the manufacturer's instructions.

Where [3] appears, read: Mus musculus, RAW264.7, read-out: Raw, EC50.
Setting [4] is: THP1-Dual cells, IRF3 pathway (Lucia), 30 min treatment, 18 hours incubation, read-out: EC50.

The record followed here is patent US11401295B2, “Cyclic dinucleotide compound and uses thereof” (SHANGHAI JEMINCARE PHARMACEUTICALS CO., LTD., priority 2018, dated 2022).

Where two headings read alike, the source gives them in different places.

One may read the EC50 as the midpoint of the concentration-response curve. `BP1(=O)OC[C@H]2O[C@@H](n3cnc4c(N)ncnc43)C(O)[C@H]2OP(=O)(S)OC[C@H]2O[C@@H](n3cnc4c(N)ncnc43)C(F)[C@H]2O1` (single isomer, unassigned) [Compound 1C]: the EC50 was found to be 16.8 µM in assay [1] and 41.4 µM in assay [2] (setting [3]).

Consider `BP1(=O)OC[C@H]2O[C@@H](n3cnc4c(N)ncnc43)C(O)[C@H]2OP(=O)(S)OC[C@H]2O[C@@H](n3cnc4c(N)ncnc43)C(F)[C@H]2O1` (single isomer, unassigned) [Compound 1D], for which the EC50 in assay [1] was found to be 7.48 µM; in assay [2] (read-out: Raw, EC50) it was 24.4 µM.

As to `BP1(=O)OC[C@H]2O[C@@H](n3cnc4c(N)ncnc43)[C@@H](F)C2OP(B)(=O)OC[C@H]2O[C@@H](n3cc(F)c4c(=O)[nH]cnc43)[C@@H](O)C2O1` (single isomer, unassigned) [Compound 3B], the concentration for a half-maximal effect (EC50) in assay [1] (Homo sapiens, THP1-Dual) stood at 42.2 µM.

For `BP1(=O)OC[C@H]2O[C@@H](n3cnc4c(N)ncnc43)[C@@H](F)C2OP(B)(=O)OC[C@H]2O[C@@H](n3cc(F)c4c(=O)[nH]cnc43)[C@@H](O)C2O1` (single isomer, unassigned) [Compound 3C], the figures for the EC50 in assay [1] and in assay [2] (setting [3]) were 47.2 µM and 9.4 µM, respectively.

For the molecule `BP1(=O)OC[C@H]2O[C@@H](n3cnc4c(N)ncnc43)[C@@H](F)C2OP(B)(=O)OC[C@H]2O[C@@H](n3cc(F)c4c(=O)[nH]cnc43)[C@@H](O)C2O1` (single isomer, unassigned) [Compound 3D], the EC50 in assay [1] was determined as 26.1 µM; in assay [2] (read-out: Raw, EC50), 10 µM.

In assay [1], `BP1(=O)OC[C@@]23COC([C@H](n4cnc5c(N)ncnc54)O2)[C@H]3OP(B)(=O)OC[C@H]2O[C@@H](n3cnc4c(N)ncnc43)[C@@H](F)C2O1` (single isomer, unassigned) [Compound 5A] yielded an EC50 of 6.2 µM.

For `BP1(=O)OC[C@@]23COC([C@H](n4cnc5c(N)ncnc54)O2)[C@H]3OP(B)(=O)OC[C@H]2O[C@@H](n3cnc4c(N)ncnc43)[C@@H](F)C2O1` (single isomer, unassigned) [Compound 5B], the half-maximal effective concentration (EC50) in assay [1] (Homo sapiens, THP1-Dual) is 11.4 µM; in assay [2] (setting [3]) it was 54.8 µM.

With `BP1(=O)OC[C@@]23COC([C@H](n4cnc5c(N)ncnc54)O2)[C@H]3OP(B)(=O)OC[C@H]2O[C@@H](n3cnc4c(N)ncnc43)[C@@H](F)C2O1` (single isomer, unassigned) [Compound 5C], the EC50 in assay [2] (read-out: Raw, EC50) worked out at 28.2 µM.

As to `BP1(=O)OC[C@@]23COC([C@H](n4cnc5c(N)ncnc54)O2)[C@H]3OP(B)(=O)OC[C@H]2O[C@@H](n3cnc4c(N)ncnc43)[C@@H](F)C2O1` (single isomer, unassigned) [Compound 5D], the figures for the concentration giving a half-maximal response (EC50) in assay [1] and in assay [2] (setting [3]) were 12.6 µM and 31.6 µM, respectively.

In assay [1], `BP1(=O)OC[C@H]2O[C@@H](n3cc(F)c4c(=O)[nH]cnc43)[C@@H](F)C2OP(B)(=O)OC[C@H]2O[C@@H](n3cnc4c(N)ncnc43)[C@@H](F)C2O1` (single isomer, unassigned) [Compound 6A] showed an EC50 of 1.36 µM.

On to `BP1(=O)OC[C@H]2O[C@@H](n3cc(F)c4c(=O)[nH]cnc43)[C@@H](F)C2OP(B)(=O)OC[C@H]2O[C@@H](n3cnc4c(N)ncnc43)[C@@H](F)C2O1` (single isomer, unassigned) [Compound 6B], for which the EC50 was 9.31 µM in assay [1] and 5.4 µM in assay [2] (read-out: Raw, EC50).

For `BP1(=O)OC[C@H]2O[C@@H](n3cc(F)c4c(=O)[nH]cnc43)[C@@H](F)C2OP(B)(=O)OC[C@H]2O[C@@H](n3cnc4c(N)ncnc43)[C@@H](F)C2O1` (single isomer, unassigned) [Compound 6C], the EC50 in assay [1] came out at 2.31 µM; in assay [2] (read-out: Raw, EC50) it was 1.1 µM.

With `BP1(=O)OC[C@H]2O[C@@H](n3cc(F)c4c(=O)[nH]cnc43)[C@@H](F)C2OP(B)(=O)OC[C@H]2O[C@@H](n3cnc4c(N)ncnc43)[C@@H](F)C2O1` (single isomer, unassigned) [Compound 6D], the 50% effective concentration (EC50) in assay [1] was determined as 12.3 µM; in assay [2] (read-out: Raw, EC50), 9.5 µM.

On to `Nc1nc2c(ncn2[C@@H]2O[C@@H]3COP(=O)(O)O[C@H]4[C@@H](O)[C@H](n5cnc6c(N)ncnc65)O[C@@H]4COP(=O)(O)O[C@@H]2[C@@H]3O)c(=O)[nH]1` [2′,3′-cGAMP, (2′ 3′) cyclic guanosine monophosphate-adenosine monophosphate, reference compound], for which, in assay [1] (setting [4]), the EC50 turned out to be 20.2 µM.

`Nc1ncnc2c1ncn2[C@@H]1O[C@@H]2COP(=O)(S)O[C@@H]3[C@H](O)[C@@H](COP(O)(=S)O[C@H]2[C@H]1O)O[C@H]3n1cnc2c(N)ncnc21` (stereo partly drawn) [ADU-S100, reference compound]: the EC50 in assay [1] (setting [4]) came to 23.4 µM; in assay [2] (RAW-Dual cells, IRF3 pathway, 30 min treatment, 18-24 hours incubation, read-out: Raw, EC50), 47.1 µM.

`BP1(=O)OC[C@H]2O[C@@H](n3cnc4c(N)ncnc43)C(O)[C@H]2OP(=O)(S)OC[C@H]2O[C@@H](n3cnc4c(N)ncnc43)[C@@H](F)C2O1` (stereo partly drawn) [Compound 1A]: in assay [1] (Homo sapiens, THP1-Dual), the EC50 is 74.7 µM.

Regarding `BP1(=O)OC[C@H]2O[C@@H](n3cnc4c(N)ncnc43)C(O)[C@H]2OP(=O)(S)OC[C@H]2O[C@@H](n3cnc4c(N)ncnc43)C(F)[C@H]2O1` (stereo partly drawn) [Compound 1B], the EC50 in assay [1] (Homo sapiens, THP1-Dual) was 7.38 µM; in assay [2] (setting [3]), 15.8 µM.

On to `BP1(=O)OC[C@H]2O[C@@H](n3cnc4c(N)ncnc43)C(F)[C@H]2OP(B)(=O)OC[C@H]2O[C@@H](n3cnc4c(N)ncnc43)[C@@H](F)C2O1` (stereo partly drawn) [Compound 2A], for which the EC50 in assay [1] (Homo sapiens, THP1-Dual) worked out at 1.75 µM; in assay [2] (setting [3]), 23.4 µM.
